Test results as given in PubChem BioAssay AID298 (DTP/NCI, 2004).
Where “and” joins values, the source holds several entries; their conditions need not be identical. Equal entries are not always repeated. Records with an inconclusive call do not appear.

Tested on: MX-1 breast xenograft, intrarenal, nude mice, tumor weight
Assay: NCI In Vivo Anticancer Drug Screen. Data for tumor model Human Mammary Carcinoma MX-1 Xenograft (intrarenal inoculation) in NU/NU BALB/C (nude) mice
Settings: endpoint: mean tumor weight change, higher = larger tumour
Outline: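 Compounds were given to mice carrying transplanted tumors, and tumor size or survival was measured. Each value is the treated-group measurement (T) divided by the vehicle-treated control-group measurement (C).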

[1] = dose: 8.0 mg/kg/injection, schedule: Q04DX003 (ip), vehicle: water
[2] = dose: 150.0 mg/kg/injection, schedule: Q04DX003 (sc), vehicle: saline
[3] = dose: 12.5 mg/kg/injection, schedule: Q04DX003 (ip), vehicle: Klucel (hydroxypropylcellulose) (HPC)
[4] = dose: 25.0 mg/kg/injection, schedule: Q04DX003 (ip), vehicle: water
[5] = dose: 50.0 mg/kg/injection, schedule: Q04DX003 (ip), vehicle: water

## NC1=NC(=O)N2CC12 (configuration not stated)
dose: 50.0 mg/kg/injection, schedule: Q04DX003 (sc), vehicle: saline
  T/C: 106 % of control
dose: 100.0 mg/kg/injection, schedule: Q04DX003 (sc), vehicle: saline
  T/C: 116 % of control
dose: 200.0 mg/kg/injection, schedule: Q04DX003 (sc), vehicle: saline
  T/C: 86 % of control

## CC(/C=C/C=C/C=C/C=C/C=C/C(O)=C1/C(=O)C(CCC(=O)O)N(C)C1=O)=C\C(C)C(OC1CC(O)C(O)C(C)O1)C(C)C (configuration not stated)
[1]
  T/C: 62 % of control
dose: 15.88 mg/kg/injection, schedule: Q04DX003 (ip), vehicle: water
  T/C: 115 % of control
dose: 16.0 mg/kg/injection, schedule: Q04DX003 (ip), vehicle: water
  T/C: 57 % of control
dose: 31.75 mg/kg/injection, schedule: Q04DX003 (ip), vehicle: water
  T/C: 97 % of control
dose: 32.0 mg/kg/injection, schedule: Q04DX003 (ip), vehicle: water
  T/C: 95 % of control
dose: 62.5 mg/kg/injection, schedule: Q04DX003 (ip), vehicle: water
  T/C: 63 % of control
dose: 64.0 mg/kg/injection, schedule: Q04DX003 (ip), vehicle: water
  T/C: 58 % of control
dose: 125.0 mg/kg/injection, schedule: Q04DX003 (ip), vehicle: water
  T/C: 50 % of control

## CNc1n[n+](-c2ccccc2)no1
dose: 18.25 mg/kg/injection, schedule: Q04DX003 (sc), vehicle: water
  T/C: 88 % of control
dose: 37.5 mg/kg/injection, schedule: Q04DX003 (sc), vehicle: water
  T/C: 81 % of control
dose: 75.0 mg/kg/injection, schedule: Q04DX003 (sc), vehicle: water
  T/C: 91 % of control

## O=P1(NCCCl)OCCCN1CCCl (configuration not stated)
[2]
  T/C: -32 % of control

## O=[N+]([O-])c1ccc(N2CCOCC2)c2c1no[n+]2[O-]
dose: 150.0 mg/kg/injection, schedule: Q04DX003 (sc), vehicle: saline with Tween-80
  T/C: 99 % of control
dose: 300.0 mg/kg/injection, schedule: Q04DX003 (sc), vehicle: saline with Tween-80
  T/C: 55 % of control
dose: 600.0 mg/kg/injection, schedule: Q04DX003 (sc), vehicle: saline with Tween-80
  T/C: 74 % of control
dose: 1200.0 mg/kg/injection, schedule: Q04DX003 (sc), vehicle: saline with Tween-80
  T/C: 63 % of control

## Cc1ccc2c(c1)C1(SC(C)C(=O)N1c1ccc(Cl)cc1)C(=O)N2 (configuration not stated)
dose: 100.0 mg/kg/injection, schedule: Q04DX003 (ip), vehicle: saline with Tween-80
  T/C: 107 % of control
dose: 200.0 mg/kg/injection, schedule: Q04DX003 (ip), vehicle: saline with Tween-80
  T/C: 85 % of control
dose: 800.0 mg/kg/injection, schedule: Q04DX003 (ip), vehicle: saline with Tween-80
  T/C: 72 % of control

## Nc1ncnc2c1ncn2C1OC(CO)C(O)C1O (configuration not stated)
[2]
  T/C: 3 % of control and 23 % of control

## CCOc1cc2c(cc1C(C)c1ccc(OC)cc1)OCO2 (configuration not stated)
dose: 300.0 mg/kg/injection, schedule: Q04DX003 (sc), vehicle: distilled water + alcohol
  T/C: 36 % of control
dose: 600.0 mg/kg/injection, schedule: Q04DX003 (sc), vehicle: distilled water + alcohol
  T/C: 90 % of control
dose: 1200.0 mg/kg/injection, schedule: Q04DX003 (sc), vehicle: distilled water + alcohol
  T/C: 76 % of control
dose: 2400.0 mg/kg/injection, schedule: Q04DX003 (sc), vehicle: distilled water + alcohol
  T/C: 111 % of control

## NC(N)=NOCC[C@@H](N)C(=O)O
dose: 300.0 mg/kg/injection, schedule: Q04DX003 (sc), vehicle: saline
  T/C: 87 % of control
dose: 600.0 mg/kg/injection, schedule: Q04DX003 (sc), vehicle: saline
  T/C: 111 % of control
dose: 1200.0 mg/kg/injection, schedule: Q04DX003 (sc), vehicle: saline
  T/C: 86 % of control
dose: 2400.0 mg/kg/injection, schedule: Q04DX003 (sc), vehicle: saline
  T/C: 77 % of control

## CC(=O)O[C@H]1C(=O)[C@@]2(C)C(C(OC(=O)c3ccccc3)[C@]3(O)C[C@H](OC(=O)C(OC(=O)CN(C)C)C(NC(=O)c4ccccc4)c4ccccc4)C(C)=C1C3(C)C)C1(OC(C)=O)COC1C[C@@H]2O (some centres not stated)
dose: 1.88 mg/kg/injection, schedule: Q01DX009 (ip), vehicle: water
  T/C: 64 % of control
dose: 3.75 mg/kg/injection, schedule: Q01DX009 (ip), vehicle: water
  T/C: 5 % of control
dose: 5.9 mg/kg/injection, schedule: Q01DX009 (ip), vehicle: water
  T/C: -78 % of control
dose: 7.5 mg/kg/injection, schedule: Q01DX009 (ip), vehicle: water
  T/C: 4 % of control
dose: 8.9 mg/kg/injection, schedule: Q01DX009 (ip), vehicle: water
  T/C: -53 % of control
dose: 13.3 mg/kg/injection, schedule: Q01DX009 (ip), vehicle: water
  T/C: -100 % of control
dose: 15.0 mg/kg/injection, schedule: Q01DX009 (ip), vehicle: water
  T/C: -80 % of control
dose: 20.0 mg/kg/injection, schedule: Q01DX009 (ip), vehicle: water
  T/C: -100 % of control

## O=C1CN(c2ccccc2)C(=O)C1C(=O)Nc1ccc(Cl)c(Cl)c1 (configuration not stated)
dose: 120.0 mg/kg/injection, schedule: Q04DX003 (ip), vehicle: saline with Tween-80
  T/C: 70 % of control
dose: 240.0 mg/kg/injection, schedule: Q04DX003 (ip), vehicle: saline with Tween-80
  T/C: 32 % of control

## ClCCCN1CCCCC1CCl (configuration not stated)
dose: 6.25 mg/kg/injection, schedule: Q04DX003 (sc), vehicle: saline
  T/C: 53 % of control
dose: 12.5 mg/kg/injection, schedule: Q04DX003 (sc), vehicle: saline
  T/C: 3 % of control
dose: 25.0 mg/kg/injection, schedule: Q04DX003 (sc), vehicle: saline
  T/C: -13 % of control

## COc1cccc2c1C(=O)c1c(O)c3c(c(O)c1C2=O)C[C@@](O)(C(=O)CO)C[C@@H]3OC1CC(N)C(O)C(C)O1 (some centres not stated)
dose: 2.0 mg/kg/injection, schedule: Q04DX003 (ip), vehicle: water
  T/C: 33 % of control
dose: 4.0 mg/kg/injection, schedule: Q04DX003 (ip), vehicle: water
  T/C: 7 % of control
[1]
  T/C: -88 % of control

## CCC(=O)[O][Bi]([c]1ccccc1)[c]1ccccc1
[3]
  T/C: 100 % of control
dose: 25.0 mg/kg/injection, schedule: Q04DX003 (ip), vehicle: Klucel (hydroxypropylcellulose) (HPC)
  T/C: 77 % of control

## CN(C)N=Nc1ccc(C(=O)O)cc1
dose: 100.0 mg/kg/injection, schedule: Q04DX003 (ip), vehicle: saline
  T/C: 30 % of control
dose: 200.0 mg/kg/injection, schedule: Q04DX003 (ip), vehicle: saline
  T/C: 2 % of control
dose: 400.0 mg/kg/injection, schedule: Q04DX003 (ip), vehicle: saline
  T/C: -60 % of control

## COc1oc(C2C/C(=C/C(C)=C/C(C)=C/C(C)=C/c3ccc([N+](=O)[O-])cc3)CO2)c(C)c(=O)c1C (configuration not stated)
dose: 1.0 mg/kg/injection, schedule: Q04DX003 (ip), vehicle: saline
  T/C: 106 % of control
dose: 2.0 mg/kg/injection, schedule: Q04DX003 (ip), vehicle: saline
  T/C: 48 % of control

## CNC(=S)C#N
dose: 75.0 mg/kg/injection, schedule: Q04DX003 (ip), vehicle: saline + Tween-80 + alcohol
  T/C: 51 % of control

## O=c1[nH]cc(F)c(=O)[nH]1
dose: 50.0 mg/kg/injection, schedule: Q04DX003 (ip), vehicle: saline
  T/C: 43 % of control

## CC(=O)OCC1OC([S-])C(OC(C)=O)C(OC(C)=O)C1OC(C)=O.CC[PH+](CC)CC.CC[PH+](CC)CC.[Au].[Au] (configuration not stated)
dose: 3.13 mg/kg/injection, schedule: Q04DX003 (ip), vehicle: Klucel (hydroxypropylcellulose) (HPC)
  T/C: 110 % of control
[3]
  T/C: 73 % of control

## O=NNc1cnccn1
dose: 12.5 mg/kg/injection, schedule: Q04DX003 (ip), vehicle: water
  T/C: 53 % of control and 74 % of control
[4]
  T/C: 26 % of control (2×) and 41 % of control
[5]
  T/C: 7 % of control and 8 % of control and 16 % of control

## O=c1n(CC2CO2)c(=O)n(CC2CO2)n1CC1CO1 (configuration not stated)
dose: 9.38 mg/kg/injection, schedule: Q04DX003 (sc), vehicle: suspension in saline
  T/C: 46 % of control
dose: 18.75 mg/kg/injection, schedule: Q04DX003 (sc), vehicle: suspension in saline
  T/C: 20 % of control
dose: 37.5 mg/kg/injection, schedule: Q04DX003 (sc), vehicle: suspension in saline
  T/C: 12 % of control

## CN(C)CN1C(=O)S/C(=C2\C(=O)N(CN(C)C)c3ccccc32)C1=O
dose: 100.0 mg/kg/injection, schedule: Q04DX003 (ip), vehicle: Klucel (hydroxypropylcellulose) (HPC)
  T/C: 102 % of control
dose: 200.0 mg/kg/injection, schedule: Q04DX003 (ip), vehicle: Klucel (hydroxypropylcellulose) (HPC)
  T/C: 100 % of control
dose: 400.0 mg/kg/injection, schedule: Q04DX003 (ip), vehicle: Klucel (hydroxypropylcellulose) (HPC)
  T/C: 80 % of control

## O=NNc1cccnc1
[4]
  T/C: 103 % of control and 113 % of control
[5]
  T/C: 108 % of control

## NC(Cc1ccc(N(CCCl)CCCl)cc1)C(=O)O (configuration not stated)
dose: 10.0 mg/kg/injection, schedule: Q04DX003 (sc), vehicle: Klucel (hydroxypropylcellulose) (HPC)
  T/C: -85 % of control and -98 % of control
dose: 20.0 mg/kg/injection, schedule: Q04DX003 (sc), vehicle: Klucel (hydroxypropylcellulose) (HPC)
  T/C: -90 % of control

## O=C(CCCN1CCC(O)(c2cccc(C(F)(F)F)c2)CC1)c1ccc(F)cc1
dose: 25.0 mg/kg/injection, schedule: Q01DX010 (sc), vehicle: Klucel (hydroxypropylcellulose) (HPC)
  T/C: 33 % of control
